Measured values reported in US20240148820A1 (priority 2021, published 2024).
In brackets after ≈: the same amount, converted by molar mass. Entries after “also recorded” stand apart in the source; their conditions may differ. Where a SMILES comes first, the peptide text is derived from it. Where no end group is shown, it is not given here.

Assays:
A(H1N1) virus [1] = assay type: cell-based, A/Hong Kong/415742M/2009(H1N1)
A(H1N1) virus [2] = tested on: A(H1N1) virus
[3] = target: Spike of SARS-CoV-2 / ACE2-human (Severe acute respiratory syndrome coronavirus 2, UniProt P0DTC2); assay type: cell-based, SARS-CoV-2 / human
A(H1N1) virus [4] = tested on: A(H1N1) virus; parameters: species or system BALB/c mice; settings: in vivo
[5] = tested on: coronavirus or influenza virus; settings: oral inoculation or intraperitoneal injection (refs 29, 30, 39, 41); cited from earlier work
SARS-CoV-2 [6] = assay type: cell-based
SARS-CoV-2 [7] = assay type: cell-based, human
SARS-CoV-2 [8] = settings: cited from earlier work
SARS-CoV = tested on: SARS-CoV; parameters: species or system BALB/c mice; settings: in vivo
SARS-CoV-2 [9] = settings: in vivo
S protein of SARS-CoV-2 = S protein of SARS-CoV-2 (Severe acute respiratory syndrome coronavirus 2, UniProt P0DTC2); assay type: binding
MDCK cells = experiment: Cytotoxicity assay (MTT)
turkey red blood cells = settings: normalized to Triton X-100
SARS-CoV-2 [10] = tested on: SARS-CoV-2
A(H1N1) virus [11] = assay type: cell-based; settings: virus pretreated 45 min, attached to MDCK cells 1 h

Compound: CC[C@H](C)[C@H](NC(=O)[C@H](C)NC(=O)CNC(=O)[C@H](CC(N)=O)NC(=O)[C@H](CO)NC(=O)[C@H](Cc1ccccc1)NC(=O)[C@H](CCCNC(=N)N)NC(=O)[C@H](Cc1c[nH]cn1)NC(=O)[C@H](CS)NC(=O)[C@H](CCC(N)=O)NC(=O)[C@H](CO)NC(=O)[C@H](CC(=O)O)NC(=O)[C@H](Cc1c[nH]c2ccccc12)NC(=O)[C@H](CCCNC(=N)N)NC(=O)CNC(=O)[C@H](CC(N)=O)NC(=O)[C@@H](NC(=O)[C@@H](N)Cc1ccccc1)[C@@H](C)CC)C(=O)N[C@@H](C)C(=O)N[C@@H](CS)C(=O)N[C@@H](C)C(=O)O [U4] (H-FINGRWDSQCHRFSNGAIACA-OH; N-terminus and C-terminus assumed)
- antiviral activity against A(H1N1) virus compared with Urumin (A(H1N1) virus [1]): more potent antiviral activity than that of Urumin
- IC50 against A(H1N1) virus (A(H1N1) virus [2]): 6.6 µg/mL (≈ 2.8 µM)

Compound: CO/C1=C\C(C)=C\[C@@H](C)[C@@H](O)[C@@H](C)C/C(C)=C/C=C/[C@H](OC)[C@@H]([C@@H](C)[C@@H](O)[C@H](C)[C@@]2(O)C[C@@H](O)[C@H](C)[C@@H](C(C)C)O2)OC1=O [bafilomycin A1]
- spike-ACE2 mediated cell fusion [3]: fusion inhibition

Compound: CCN(CC)CCCC(C)Nc1ccnc2cc(Cl)ccc12 (stereo not drawn) [chloroquine]
- A(H1N1) virus replication in mouse lungs (in words) (A(H1N1) virus [4]): inhibited A(H1N1) virus replication
- A(H1N1) virus replication in mouse lungs, atomization inhalation (A(H1N1) virus [4]): could inhibit; also recorded: inhibited
- 1-day prophylactic activity against A(H1N1) virus replication (A(H1N1) virus [4]; mouse): could not provide 1-day prophylactic activity
- inhibition of A(H1N1) virus replication in mice (A(H1N1) virus [4]; mouse): 3.5 fold
- inhibition of A(H1N1) virus replication, one dose before viral inoculation (A(H1N1) virus [4]; mouse): 3-5 fold
- coronavirus or influenza virus replication in vivo after systemic administration [5]: could not inhibit coronavirus or influenza virus replication in vivo
- antiviral activity when cells treated before or after infection (SARS-CoV-2 [6]): significantly less antiviral activity
- viral replication when treated during viral infection (SARS-CoV-2 [6]): effectively inhibit viral replication; also recorded: more effectively inhibited viral replication
- SARS-CoV-2 replication in ex vivo human lung tissues (SARS-CoV-2 [7]): significantly inhibited SARS-CoV-2 replication
- SARS-CoV-2 replication in Calu-3 cells (reference 24) (SARS-CoV-2 [8]): cannot inhibit SARS-CoV-2 replication
- SARS-CoV replication in mouse lungs, atomization inhalation (SARS-CoV): could inhibit; also recorded: inhibited
- 1-day prophylactic activity against SARS-CoV replication (SARS-CoV; mouse): could not provide 1-day prophylactic activity
- inhibition of SARS-CoV replication, one dose before viral inoculation (SARS-CoV; mouse): 3-5 fold
- SARS-CoV-2 replication in hamster lungs (in words) (SARS-CoV-2 [9]): inhibited SARS-CoV-2 replication
- inhibition of SARS-CoV-2 replication in hamster lungs (SARS-CoV-2 [9]): 2 fold

Compound: IPLRGAFINGRWDSQCHRFS [U5]
- binding to S protein of SARS-CoV-2 (S protein of SARS-CoV-2): bound to S protein
- effect of U5 on P16 binding to S protein (S protein of SARS-CoV-2): reduced P16 binding to S protein; also recorded: blocked P16 binding to S protein
- antiviral activity against A(H1N1) virus compared with Urumin (A(H1N1) virus [1]): more potent antiviral activity than that of Urumin
- spike-ACE2 mediated cell fusion [3]: did not inhibit spike-ACE2 mediated fusion
- IC50 against A(H1N1) virus (A(H1N1) virus [2]): 12.9 µg/mL

Compound: RGAHIKGRWKSRCHRF [P16, RGAHIKGRWKSRCHRF]
- IC50 against A(H3N2) (A(H3N2)): 1.6 µg/mL
- cytotoxicity on MDCK cells (MDCK cells; MDCK cells treated by 1 mg ml^−1 of P16): no significant cytotoxicity
- TC50 (MDCK cells; MDCK cells, MTT, 24 h): > 1000 µg/mL
- hemolysis of turkey red blood cells (turkey red blood cells): no significant hemolysis
- IC50 for SARS-CoV-2 B.1.1.63 (SARS-CoV-2 [10]): 3.0 µg/mL
- IC50 for SARS-CoV-2 B.1.617.2 (SARS-CoV-2 [10]): 3.9 µg/mL
- IC50 for SARS-CoV-2 HKU001a (SARS-CoV-2 [10]): 2.9 µg/mL
- IC50 against FluB (FluB): 7.1 µg/mL
- IC50 against A(H1N1) virus (A(H1N1) virus [2]): 3.9 µg/mL

Compound: Triton X-100
- viral attachment to cells (RNA copies of attached virus) (A(H1N1) virus [11]): significantly reduced
